What was measured:
[1] = test system: re-plated PDAC2-derived spheres; test: Cytosolic cysteine cathepsin activity; format: cell-based, human; settings: 1.25 or 2.5 µM, 6 h
Experimental: Spheres were re-plated, and then treated the following day with the indicated concentration of compounds for 6 h in CSC media. Cells were subsequently placed on ice and extracted with either 25 µg/mL or 250 µg/mL of digitonin in 250 mM sucrose, 20 mM HEPES, 10 mM KCl, 1.5 mM MgCl2, 1 mM EDTA, 1 mM EGTA, 1 mM pefablock, pH 7.5. The extracts were taken and spun down briefly to eliminate floating cells. Cathepsin activity was measured in a 96 well format by measuring cleavage of zFR-AMC (Z-Phe-Arg-AMC. Z: N-carbobenzyloxy; 7-Amino-4-methylcoumarin), as previously described.

ABL1(T315I)-nonP = molecular target: T1, ABL1(T315I)-nonP (Homo sapiens, UniProt P00519, T315I); test: KINOMEscan; format: binding; settings: read-out: % Ctrl
T1 construct: purchased DiscoveRx KINOMEscan

FLT3(K663Q) = molecular target: T2, FLT3(K663Q) (Homo sapiens, UniProt P36888, K663Q); test: KINOMEscan; format: binding; settings: read-out: % Ctrl
T2 construct: purchased DiscoveRx KINOMEscan

ACVR1 = molecular target: T3, ACVR1 (Homo sapiens, UniProt Q04771); test: KINOMEscan; format: binding; settings: read-out: % Ctrl
T3 construct: purchased DiscoveRx KINOMEscan

PIK3CA(I800L) = molecular target: T4, PIK3CA(I800L) (Homo sapiens, UniProt P42336, I800L); test: KINOMEscan; format: binding; settings: read-out: % Ctrl
T4 construct: purchased DiscoveRx KINOMEscan

PIK3CD = molecular target: T5, PIK3CD (Homo sapiens, UniProt O00329); test: KINOMEscan; format: binding; settings: read-out: % Ctrl
T5 construct: purchased DiscoveRx KINOMEscan

GRK3 = molecular target: T6, GRK3 (Homo sapiens, UniProt P35626); test: KINOMEscan; format: binding; settings: read-out: % Ctrl
T6 construct: purchased DiscoveRx KINOMEscan

ALK(C1156Y) = molecular target: T7, ALK(C1156Y) (Homo sapiens, UniProt Q9UM73, C1156Y); test: KINOMEscan; format: binding; settings: read-out: % Ctrl
T7 construct: purchased DiscoveRx KINOMEscan

PIM2 = molecular target: T8, PIM2 (Homo sapiens, UniProt Q9P1W9); test: KINOMEscan; format: binding; settings: read-out: % Ctrl
T8 construct: purchased DiscoveRx KINOMEscan

GSK3A = molecular target: T9, GSK3A (Homo sapiens, UniProt P49840); test: KINOMEscan; format: binding; settings: read-out: % Ctrl
T9 construct: purchased DiscoveRx KINOMEscan

AURKB = molecular target: T10, AURKB (Homo sapiens, UniProt Q96GD4); test: KINOMEscan; format: binding; settings: read-out: % Ctrl
T10 construct: purchased DiscoveRx KINOMEscan

AXL = molecular target: T11, AXL (Homo sapiens, UniProt P30530); test: KINOMEscan; format: binding; settings: read-out: % Ctrl
T11 construct: purchased DiscoveRx KINOMEscan

IGF1R = molecular target: T12, IGF1R (Homo sapiens, UniProt P08069); test: KINOMEscan; format: binding; settings: read-out: % Ctrl
T12 construct: purchased DiscoveRx KINOMEscan

IKK-epsilon = molecular target: T13, IKK-epsilon (Homo sapiens, UniProt Q14164); test: KINOMEscan; format: binding; settings: read-out: % Ctrl
T13 construct: purchased DiscoveRx KINOMEscan

BMX = molecular target: T14, BMX (Homo sapiens, UniProt P51813); test: KINOMEscan; format: binding; settings: read-out: % Ctrl
T14 construct: purchased DiscoveRx KINOMEscan

BRK = molecular target: T15, BRK (Homo sapiens, UniProt Q13882); test: KINOMEscan; format: binding; settings: read-out: % Ctrl
T15 construct: purchased DiscoveRx KINOMEscan

PRKCQ = molecular target: T16, PRKCQ (Homo sapiens, UniProt Q04759); test: KINOMEscan; format: binding; settings: read-out: % Ctrl
T16 construct: purchased DiscoveRx KINOMEscan

JAK1(JH1D.-cat.) = molecular target: T17, JAK1(JH1D.-cat.) (Homo sapiens, UniProt P23458); test: KINOMEscan; format: binding; settings: read-out: % Ctrl
T17 construct: JAK1(JH1D.-cat.); purchased DiscoveRx KINOMEscan

PRKD2 = molecular target: T18, PRKD2 (Homo sapiens, UniProt Q9BZL6); test: KINOMEscan; format: binding; settings: read-out: % Ctrl
T18 construct: purchased DiscoveRx KINOMEscan

BUB1 = molecular target: T19, BUB1 (Homo sapiens, UniProt O43683); test: KINOMEscan; format: binding; settings: read-out: % Ctrl
T19 construct: purchased DiscoveRx KINOMEscan

JNK2 = molecular target: T20, JNK2 (Homo sapiens, UniProt P45984); test: KINOMEscan; format: binding; settings: read-out: % Ctrl
T20 construct: purchased DiscoveRx KINOMEscan

RSK1(KD1-N-t.) = molecular target: T21, RSK1(KD1-N-t.) (Homo sapiens, UniProt Q15418); test: KINOMEscan; format: binding; settings: read-out: % Ctrl
T21 construct: RSK1(KD1-N-t.); purchased DiscoveRx KINOMEscan

RSK2(KD2-C-t.) = molecular target: T22, RSK2(KD2-C-t.) (Homo sapiens, UniProt P51812); test: KINOMEscan; format: binding; settings: read-out: % Ctrl
T22 construct: RSK2(KD2-C-t.); purchased DiscoveRx KINOMEscan

MAP3K4 = molecular target: T23, MAP3K4 (Homo sapiens, UniProt Q9Y6R4); test: KINOMEscan; format: binding; settings: read-out: % Ctrl
T23 construct: purchased DiscoveRx KINOMEscan

RSK3(KD2-C-t.) = molecular target: T24, RSK3(KD2-C-t.) (Homo sapiens, UniProt Q15349); test: KINOMEscan; format: binding; settings: read-out: % Ctrl
T24 construct: RSK3(KD2-C-t.); purchased DiscoveRx KINOMEscan

CIT = molecular target: T25, CIT (Homo sapiens, UniProt O14578); test: KINOMEscan; format: binding; settings: read-out: % Ctrl
T25 construct: purchased DiscoveRx KINOMEscan

MAP4K4 = molecular target: T26, MAP4K4 (Homo sapiens, UniProt O95819); test: KINOMEscan; format: binding; settings: read-out: % Ctrl
T26 construct: purchased DiscoveRx KINOMEscan

MEK3 = molecular target: T27, MEK3 (Homo sapiens, UniProt P46734); test: KINOMEscan; format: binding; settings: read-out: % Ctrl
T27 construct: purchased DiscoveRx KINOMEscan

CTK = molecular target: T28, CTK (Homo sapiens, UniProt P42679); test: KINOMEscan; format: binding; settings: read-out: % Ctrl
T28 construct: purchased DiscoveRx KINOMEscan

[2] = molecular target: T29, EGFR(L747-S752del, P753S) (Homo sapiens, UniProt P00533, DEL747-752/P753S); test: KINOMEscan; format: binding; settings: read-out: % Ctrl
T29 construct: purchased DiscoveRx KINOMEscan

NDR1 = molecular target: T30, NDR1 (Homo sapiens, UniProt Q15208); test: KINOMEscan; format: binding; settings: read-out: % Ctrl
T30 construct: purchased DiscoveRx KINOMEscan

EGFR(T790M) = molecular target: T31, EGFR(T790M) (Homo sapiens, UniProt P00533, T790M); test: KINOMEscan; format: binding; settings: read-out: % Ctrl
T31 construct: purchased DiscoveRx KINOMEscan

NDR2 = molecular target: T32, NDR2 (Homo sapiens, UniProt Q9Y2H1); test: KINOMEscan; format: binding; settings: read-out: % Ctrl
T32 construct: purchased DiscoveRx KINOMEscan

TTK = molecular target: T33, TTK (Homo sapiens, UniProt P33981); test: KINOMEscan; format: binding; settings: read-out: % Ctrl
T33 construct: purchased DiscoveRx KINOMEscan

NEK5 = molecular target: T34, NEK5 (Homo sapiens, UniProt Q6P3R8); test: KINOMEscan; format: binding; settings: read-out: % Ctrl
T34 construct: purchased DiscoveRx KINOMEscan

ULK2 = molecular target: T35, ULK2 (Homo sapiens, UniProt Q8IYT8); test: KINOMEscan; format: binding; settings: read-out: % Ctrl
T35 construct: purchased DiscoveRx KINOMEscan

p38-delta = molecular target: T36, p38-delta (Homo sapiens, UniProt O15264); test: KINOMEscan; format: binding; settings: read-out: % Ctrl
T36 construct: purchased DiscoveRx KINOMEscan

PAK4 = molecular target: T37, PAK4 (Homo sapiens, UniProt O96013); test: KINOMEscan; format: binding; settings: read-out: % Ctrl
T37 construct: purchased DiscoveRx KINOMEscan

T29 sequence (P00533 with tags, fused parts or gaps DEL747-752/P753S limits assumed): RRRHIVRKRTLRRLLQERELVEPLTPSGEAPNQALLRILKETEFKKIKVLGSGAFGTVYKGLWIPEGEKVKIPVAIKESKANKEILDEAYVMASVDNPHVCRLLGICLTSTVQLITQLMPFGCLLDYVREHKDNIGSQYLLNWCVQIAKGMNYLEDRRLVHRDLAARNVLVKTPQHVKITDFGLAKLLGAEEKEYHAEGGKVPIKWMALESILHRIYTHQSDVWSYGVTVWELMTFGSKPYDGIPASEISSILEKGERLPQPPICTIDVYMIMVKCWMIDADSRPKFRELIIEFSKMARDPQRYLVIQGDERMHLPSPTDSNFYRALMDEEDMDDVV
T23 sequence (Q9Y6R4 whole entry): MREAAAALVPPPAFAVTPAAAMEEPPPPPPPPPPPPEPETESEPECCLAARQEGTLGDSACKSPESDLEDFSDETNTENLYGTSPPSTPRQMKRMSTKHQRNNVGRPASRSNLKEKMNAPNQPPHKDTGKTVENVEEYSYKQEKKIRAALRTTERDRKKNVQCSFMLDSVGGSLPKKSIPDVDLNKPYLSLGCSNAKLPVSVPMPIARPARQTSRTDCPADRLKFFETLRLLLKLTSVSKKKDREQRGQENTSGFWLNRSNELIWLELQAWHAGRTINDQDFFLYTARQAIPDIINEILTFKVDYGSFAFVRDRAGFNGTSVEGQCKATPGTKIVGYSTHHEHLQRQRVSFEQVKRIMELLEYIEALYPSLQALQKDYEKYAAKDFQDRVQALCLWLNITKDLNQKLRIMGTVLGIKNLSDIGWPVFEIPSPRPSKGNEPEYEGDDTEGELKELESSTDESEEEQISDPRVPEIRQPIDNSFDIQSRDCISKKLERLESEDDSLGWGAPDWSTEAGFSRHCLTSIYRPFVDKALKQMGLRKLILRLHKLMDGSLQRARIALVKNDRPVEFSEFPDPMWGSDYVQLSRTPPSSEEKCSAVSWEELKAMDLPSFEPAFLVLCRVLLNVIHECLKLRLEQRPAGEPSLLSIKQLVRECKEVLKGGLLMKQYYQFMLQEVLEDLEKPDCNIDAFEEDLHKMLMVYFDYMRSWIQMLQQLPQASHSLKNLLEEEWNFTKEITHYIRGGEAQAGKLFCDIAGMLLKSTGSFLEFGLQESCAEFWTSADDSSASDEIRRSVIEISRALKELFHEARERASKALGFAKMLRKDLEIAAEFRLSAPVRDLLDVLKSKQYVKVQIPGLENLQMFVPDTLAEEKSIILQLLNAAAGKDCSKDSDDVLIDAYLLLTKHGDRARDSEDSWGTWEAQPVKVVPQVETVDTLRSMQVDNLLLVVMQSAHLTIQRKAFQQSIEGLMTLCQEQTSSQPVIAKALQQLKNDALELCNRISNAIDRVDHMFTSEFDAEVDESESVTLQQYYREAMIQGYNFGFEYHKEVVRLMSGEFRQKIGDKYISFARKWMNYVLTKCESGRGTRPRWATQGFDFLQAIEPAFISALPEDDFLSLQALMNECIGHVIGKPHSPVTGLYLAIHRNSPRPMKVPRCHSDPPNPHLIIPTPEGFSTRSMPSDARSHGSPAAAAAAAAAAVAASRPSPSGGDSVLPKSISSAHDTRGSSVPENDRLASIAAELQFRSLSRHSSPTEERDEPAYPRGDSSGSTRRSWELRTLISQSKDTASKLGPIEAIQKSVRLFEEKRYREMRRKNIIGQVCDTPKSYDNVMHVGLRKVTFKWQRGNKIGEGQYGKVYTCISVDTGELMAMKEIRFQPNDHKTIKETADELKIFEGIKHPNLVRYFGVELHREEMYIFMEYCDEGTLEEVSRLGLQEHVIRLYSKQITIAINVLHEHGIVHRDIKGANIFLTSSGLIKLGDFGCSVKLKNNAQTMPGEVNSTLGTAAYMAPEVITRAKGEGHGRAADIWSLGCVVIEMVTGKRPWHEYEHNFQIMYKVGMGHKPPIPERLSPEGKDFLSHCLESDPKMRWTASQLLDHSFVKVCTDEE
T34 sequence (Q6P3R8 whole entry): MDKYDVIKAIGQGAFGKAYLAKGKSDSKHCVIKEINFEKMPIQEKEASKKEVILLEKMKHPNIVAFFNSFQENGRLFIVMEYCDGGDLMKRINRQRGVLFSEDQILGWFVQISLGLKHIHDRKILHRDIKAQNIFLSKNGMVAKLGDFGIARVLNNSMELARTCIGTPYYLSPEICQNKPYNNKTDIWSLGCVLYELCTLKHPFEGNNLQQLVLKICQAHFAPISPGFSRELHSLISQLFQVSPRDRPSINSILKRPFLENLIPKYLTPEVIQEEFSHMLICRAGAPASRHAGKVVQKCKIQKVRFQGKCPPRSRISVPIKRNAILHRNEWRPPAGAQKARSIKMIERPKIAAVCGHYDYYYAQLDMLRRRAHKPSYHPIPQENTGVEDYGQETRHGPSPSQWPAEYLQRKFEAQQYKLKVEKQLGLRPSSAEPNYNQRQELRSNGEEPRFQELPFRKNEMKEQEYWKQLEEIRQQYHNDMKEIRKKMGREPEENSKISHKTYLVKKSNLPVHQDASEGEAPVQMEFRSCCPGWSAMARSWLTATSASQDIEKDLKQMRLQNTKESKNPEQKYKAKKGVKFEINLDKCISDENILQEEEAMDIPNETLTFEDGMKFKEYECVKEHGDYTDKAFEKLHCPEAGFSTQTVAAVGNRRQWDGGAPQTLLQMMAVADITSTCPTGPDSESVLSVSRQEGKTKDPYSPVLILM
T32 sequence (Q9Y2H1 whole entry): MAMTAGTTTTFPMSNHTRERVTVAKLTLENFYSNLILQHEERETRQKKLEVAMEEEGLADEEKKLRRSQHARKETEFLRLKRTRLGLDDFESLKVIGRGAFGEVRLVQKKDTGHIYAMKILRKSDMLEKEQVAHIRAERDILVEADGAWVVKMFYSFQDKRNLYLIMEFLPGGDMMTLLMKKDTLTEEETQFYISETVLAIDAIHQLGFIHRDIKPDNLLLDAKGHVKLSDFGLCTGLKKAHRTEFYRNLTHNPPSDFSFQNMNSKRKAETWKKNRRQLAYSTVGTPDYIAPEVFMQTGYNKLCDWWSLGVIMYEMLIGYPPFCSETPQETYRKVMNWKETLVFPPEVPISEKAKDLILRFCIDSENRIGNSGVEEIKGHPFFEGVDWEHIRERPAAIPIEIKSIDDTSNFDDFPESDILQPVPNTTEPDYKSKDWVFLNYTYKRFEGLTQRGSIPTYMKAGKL
T30 sequence (Q15208 whole entry): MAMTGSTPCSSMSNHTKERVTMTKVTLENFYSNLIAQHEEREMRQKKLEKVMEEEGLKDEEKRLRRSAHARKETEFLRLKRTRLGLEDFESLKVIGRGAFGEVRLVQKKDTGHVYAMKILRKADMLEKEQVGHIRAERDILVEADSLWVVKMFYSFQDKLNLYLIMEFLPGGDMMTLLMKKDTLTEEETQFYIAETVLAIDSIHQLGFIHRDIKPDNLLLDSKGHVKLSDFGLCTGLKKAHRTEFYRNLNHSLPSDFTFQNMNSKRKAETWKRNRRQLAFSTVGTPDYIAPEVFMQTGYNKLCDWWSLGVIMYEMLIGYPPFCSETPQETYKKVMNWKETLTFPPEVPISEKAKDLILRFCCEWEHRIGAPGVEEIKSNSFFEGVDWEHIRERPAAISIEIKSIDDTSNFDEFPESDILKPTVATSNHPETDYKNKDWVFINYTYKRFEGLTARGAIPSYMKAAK
T26 sequence (O95819 whole entry): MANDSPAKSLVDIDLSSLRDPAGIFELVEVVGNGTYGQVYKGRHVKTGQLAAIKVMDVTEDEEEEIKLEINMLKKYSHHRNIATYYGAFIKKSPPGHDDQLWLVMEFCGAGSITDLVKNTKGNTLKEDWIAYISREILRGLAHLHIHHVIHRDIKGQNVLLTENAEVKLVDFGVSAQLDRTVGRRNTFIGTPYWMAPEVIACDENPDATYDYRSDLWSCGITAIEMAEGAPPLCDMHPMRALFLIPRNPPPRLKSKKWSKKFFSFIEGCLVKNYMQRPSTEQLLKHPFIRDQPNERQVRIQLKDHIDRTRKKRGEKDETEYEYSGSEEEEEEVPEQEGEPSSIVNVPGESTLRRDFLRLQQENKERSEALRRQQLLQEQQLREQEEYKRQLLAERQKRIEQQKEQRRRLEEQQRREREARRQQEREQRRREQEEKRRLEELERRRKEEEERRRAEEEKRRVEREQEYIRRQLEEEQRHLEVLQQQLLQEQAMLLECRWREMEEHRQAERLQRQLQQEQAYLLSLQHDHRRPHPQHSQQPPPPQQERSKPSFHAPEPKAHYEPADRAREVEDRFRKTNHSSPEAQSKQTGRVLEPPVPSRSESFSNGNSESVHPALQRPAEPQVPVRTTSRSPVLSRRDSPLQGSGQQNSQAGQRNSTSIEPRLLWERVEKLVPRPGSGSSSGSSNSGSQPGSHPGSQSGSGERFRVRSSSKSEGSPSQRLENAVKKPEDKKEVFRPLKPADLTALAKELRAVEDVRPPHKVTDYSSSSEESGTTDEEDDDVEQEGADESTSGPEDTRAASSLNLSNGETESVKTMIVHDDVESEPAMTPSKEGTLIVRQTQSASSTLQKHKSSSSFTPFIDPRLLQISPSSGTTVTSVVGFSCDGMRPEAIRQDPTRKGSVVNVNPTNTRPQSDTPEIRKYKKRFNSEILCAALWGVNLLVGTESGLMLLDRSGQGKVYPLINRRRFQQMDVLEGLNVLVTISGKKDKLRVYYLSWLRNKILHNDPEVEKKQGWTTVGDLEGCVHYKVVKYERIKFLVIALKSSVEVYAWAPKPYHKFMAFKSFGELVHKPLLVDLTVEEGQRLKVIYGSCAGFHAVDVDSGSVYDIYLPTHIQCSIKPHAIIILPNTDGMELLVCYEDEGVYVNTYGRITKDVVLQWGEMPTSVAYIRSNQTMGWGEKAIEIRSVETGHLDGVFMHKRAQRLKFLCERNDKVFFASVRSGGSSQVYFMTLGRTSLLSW

**Q.** What does the source list for `CN1CCC(CNc2ccc3ncc(C(=O)Nc4cccc(OC(F)(F)F)c4)n3n2)CC1` [Cpd 2]?
**A.** cytosolic cysteine cathepsin activity [1]: increased cytosolic cysteine cathepsin activity; remaining binding at 1 µM (ABL1(T315I)-nonP): 70%; remaining binding at 1 µM (FLT3(K663Q)): 92%; remaining binding at 1 µM (ACVR1): 99%; remaining binding at 1 µM (PIK3CA(I800L)): 81%; remaining binding at 1 µM (PIK3CD): 85%; remaining binding at 1 µM (GRK3): 76%; remaining binding at 1 µM (ALK(C1156Y)): 85%; remaining binding at 1 µM (PIM2): 72%; remaining binding at 1 µM (GSK3A): 100%; remaining binding at 1 µM (AURKB): 97%; remaining binding at 1 µM (AXL): 65%; remaining binding at 1 µM (IGF1R): 100%; remaining binding at 1 µM (IKK-epsilon): 100%; remaining binding at 1 µM (BMX): 100%; remaining binding at 1 µM (BRK): 99%; remaining binding at 1 µM (PRKCQ): 55%; remaining binding at 1 µM (JAK1(JH1D.-cat.)): 100%; remaining binding at 1 µM (PRKD2): 87%; remaining binding at 1 µM (BUB1): 62%; remaining binding at 1 µM (JNK2): 99%; remaining binding at 1 µM (RSK1(KD1-N-t.)): 97%; remaining binding at 1 µM (RSK2(KD2-C-t.)): 100%; remaining binding at 1 µM (MAP3K4): 86%; remaining binding at 1 µM (RSK3(KD2-C-t.)): 74%; remaining binding at 1 µM (CIT): 60%; remaining binding at 1 µM (MAP4K4): 89%; remaining binding at 1 µM (MEK3): 94%; remaining binding at 1 µM (CTK): 70%; remaining binding at 1 µM [2]: 92%; remaining binding at 1 µM (NDR1): 89%; remaining binding at 1 µM (EGFR(T790M)): 96%; remaining binding at 1 µM (NDR2): 91%; remaining binding at 1 µM (TTK): 63%; remaining binding at 1 µM (NEK5): 98%; remaining binding at 1 µM (ULK2): 100%; remaining binding at 1 µM (p38-delta): 100%; remaining binding at 1 µM (PAK4): 100%

Source: article PMC7407272, “Induction of Lysosome Membrane Permeabilization as a Therapeutic Strategy to Target Pancreatic Cancer Stem Cells” (Cancers, 2020)
